Measured values from US8202875B2, “Selective insecticides based on substituted cyclic ketoenols and safeners” (Bayer Cropscience AG, priority 2004, dated 2012).

How the values were obtained:
Assay type in all cases: in vivo
[1] = tested on: cotton aphid (Aphis gossypii); assay: Aphis gossypii test, spray application on cotton plants; details: 100 ppm
Source text: (§1) The expected activity of a given combination of two active compounds can be calculated as follows (cf. Colby, S. R., “Calculating Synergistic and Antagonistic Responses of Herbicide Combinations”, Weeds 15, pages 20-22, 1967):
(§2) • X is the kill rate expressed in % of the untreated control when employing active compound A at an application rate of m ppm, • Y is the kill rate expressed in % of the untreated control when employing active compound B at an application rate of n ppm, • E is the kill rate expressed in % of the untreated control when using the active compounds A and B at application rates of m and n ppm,
(§3) If the actual insecticidal kill rate exceeds the calculated value, the kill of the combination is superadditive, i.e. a synergistic effect is present. In this case, the actually observed kill rate must exceed the value calculated using the above formula for the expected kill rate (E).
(§4) Adjuvant: rapeseed oil methyl ester (0.1% of a.i./l)
(§5) To prepare a suitable application solution, 1 part by weight of formulation is mixed with the appropriate amount of water and the adjuvant and the concentrate is diluted with water to the desired concentration. […]
(§6) After the desired period of time, the kill in % is determined. […] The determined kill rates are entered in Colby's formula.

[2] = tested on: grain aphid (Metopolophium dirhodum); assay: Metopolophium dirhodum test, spray application on barley plants
Source text: as §1, §2, §3, §4, §5, §6

[3] = tested on: green peach aphid (Myzus persicae); assay: Myzus persicae test, spray application on bell pepper plants
Source text: as §1, §2, §3, §4
To prepare a suitable application solution, 1 part by weight of formulation is mixed with the appropriate amount of water and the adjuvant and the concentrate is diluted with water to the desired concentration.
Bell pepper plants (Capsicum sativum) which are heavily infested by the green peach aphid (Myzus persicae) are sprayed to runoff point with the desired concentration of the application solution.
After the desired period of time, the kill in % is determined. 100% means that all aphids have been killed; 0% means that none of the aphids have been killed. The determined kill rates are entered in Colby's formula.

[4] = tested on: bird cherry-oat aphid (Rhopalosiphum padi); assay: Safener test after spraying: kill of aphids on barley (greenhouse); details: 100 g of a.i./ha, barley at 2-leaf stage, spray boom
Procedure: (§7) Method: Safener test after spraying
(§8) Solvent: 7 parts by weight of DMF
(§9) Emulsifier: 2 parts by weight of alkylaryl polyglycol ether
(§10) To produce a suitable preparation of active compound, 1 part by weight of active compound is mixed with the stated amounts of solvent and emulsifier, and the concentrate is diluted with tap water to the desired concentration. The desired amount of safener (in the case of mefenpyr-diethyl as WP 20) is mixed into the water used for dilution. Furthermore, 2 g of a.i./l of rapeseed oil methyl ester 500 EW are added. Leaves of winter barley at the 2-leaf stage which are infested by the bird cherry-oat aphid (Rhopalosiphum padi) are treated with the desired active compound and safener concentrations using a spray boom, the water application rate being […]. Per variant, the test is carried out at least twice. Evaluation is carried out after 7 d and/or 14 d by assessing the plant damage in % and the kill of the grain aphids in % compared to the untreated control. 100% damage means that the plant has died, and 0% means no damage. 100% effect on the grain aphids means that all aphids have been killed; 0% means that none of the aphids have been killed.
(§11) Results for greenhouse trials with safener after spraying against Rhopalosiphum padi on summer barley/winter barley

winter barley = assay: Safener test after spraying: plant damage to barley (greenhouse); details: 100 g of a.i./ha
Procedure: as §7, §8, §9, §10, §11

## C=CCN(CC=C)C(=O)C(Cl)Cl [Dichlormid a.i., 2,2-dichloro-N,N-di-2-propenyl-acetamide]
[1]
  Kill rate in % after 7 d, found: 0%
[2]; 100 ppm
  Kill rate in % after 7 d, found: 0%
[3]; 100 ppm
  Kill rate in % after 7 d, found: 0%

## Clc1cc(Cl)nc(-c2ccccc2)n1 [Fenclorim a.i., 4,6-dichloro-2-phenyl-pyrimidine]
[2]; 25 ppm
  Kill rate in % after 7 d, found: 0%
[3]; 50 ppm
  Kill rate in % after 7 d, found: 0%

## CC1(C)OC(c2ccco2)CN1C(=O)C(Cl)Cl (centres unmarked) [Furilazole a.i., 3-dichloroacetyl-5-(2-furanyl)-2,2-dimethyl-oxazolidine]
[3]; 50 ppm
  Kill rate in % after 7 d, found: 0%

## CCOC(=O)C1=NN(c2ccc(Cl)cc2Cl)C(C)(C(=O)OCC)C1 (centres unmarked) [mefenpyr-diethyl, diethyl 1-(2,4-dichloro-phenyl)-4,5-dihydro-5-methyl-1H-pyrazole-3,5-dicarboxylate]
[4]
  Kill (%) 7 d: 0%
Winter barley; 7 d
  Damage to new growth (%) 7 d: 0%
Winter barley; 7 d, 100% = plant has died
  Damage (%) 7 d: 0%
Winter barley; 14 d
  Damage to new growth (%) 14 d: 0%
Winter barley; 14 d, 100% = plant has died
  Damage (%) 14 d: 0%
